For assay [1], the target named is T1, human ghrelin receptor (GRLN, growth hormone secretagogue receptor, hGHS-R1a) (Homo sapiens, UniProt Q92847).
T1 construct: purchased PerkinElmer BioSignal #RBHGHSM, lot#1887; host or cells: HEK-293 cells, stably transfected (membranes)
Description: Competitive radioligand binding assay (ghrelin receptor), Method B1. The note with it: Ghrelin receptor binding activity, Method B1. A digest of the protocol:
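Membranes incubated with compound 30 min at rt in 25 mM Hepes pH 7.4, 1 mM CaCl2, 5 mM MgCl2, 2.5 mM EDTA, 0.4% BSA, max 0.1% DMSO; filtered on PEI-soaked GF/C, washed with cold Tris, scintillation counted. Curves fitted by variable-slope non-linear regression.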

Assay [2] concerns the target T2, GHS-R1a receptor (HEK293 cells expressing GHS-R1a receptor) (Homo sapiens, UniProt Q92847).
T2 construct: host or cells: HEK293
As to the kind of experiment: Fluorescence functional assay (ghrelin receptor), Method B2, agonist and antagonist mode. In kind it is cell-based. The note with it: functional activity as an antagonist at the ghrelin receptor, Methods B2 and B3. The method, then:
• 1. ImageTrak Epi-Fluorescence system (Perkin-Elmer) • 2. MultiDrop TiterTek • 3. CO2 incubators: 5% CO2, humidified, 37° C.
• 1. Hanks' BSS without phenol red (Life Technologies) • 2. Hepes buffer • 3. Probenecid (Sigma) • 4. […] Falcon cell culture 96-well black/clear bottom plates • 6. 0.05% trypsin-EDTA • 7. Cells: HEK293 cells expressing GHS-R1a receptor (Perkin-Elmer BioSignal) were grown in DMEM (Dulbecco's Modified Eagles Medium) with 10% FBS, 1% sodium pyruvate, 1% NEAA and 400 μg/mL geneticin • 8. […] [D-Lys^3]-GHRP-6 (reference antagonist, Phoenix #031-22) • 10. Assay buffer: HBSS-20 mM Hepes containing 2.5 mM probenecid and 0.1% BSA (bovine serum albumin); pH 7.4
Stock solutions of compounds (10 mM in 100% DMSO) were provided frozen on dry ice and stored at −80° C. prior to use. […] Assay plates were then prepared by appropriate dilution in assay buffer.
Typical Final Test Concentrations (N=10) for Test Compounds (agonist):
Typical Final Test Concentrations (N=10) for Test Compounds (antagonist):
Cells were maintained in culture as indicated above. The cells were harvested at a confluency of 70-90% the day before the experiment. Growth medium was removed and the cells rinsed briefly with PBS without Ca^+2 and Mg^+2. 0.05% Trypsin was added and the plates incubated at 37° C. for 5 min to detach the cells. DMEM medium supplemented with 10% FBS was added to inactivate the trypsin and determine the cell concentration. The inoculum was adjusted to a final concentration of 200 cells/μL and dispensed at 200 μL per well into a 96-well block plate. The plates were, incubated at 37° C. overnight.
The plates were removed from the incubator and the media removed by inversion of the plates. Calcium-3 dye, 50 μL, was loaded and then incubated for 1 h at 37° C. The plate was again inverted and then 25 μL of assay buffer added. The plates were then transferred to the ImageTrak system for analysis. For agonist testing, after reading for ten (10) sec, 25 μL of 2× test compound or control was injected into the assay plate. Fluorescence was monitored for an additional 50 sec. A reading was taken every two (2) seconds for a total of 30 readings per assay point.
For antagonist testing, after reading for ten (10) sec, 12.5 μL of 3× test compound or control was injected into the assay plate and allowed to react for three (3) min.
Concentration response curves were analyzed using GraphPad Prism (GraphPad Software, San Diego, Calif.) by non-linear regression analysis (sigmoidal dose-response). EC50 values are calculated using GraphPad.
Emax values were calculated using the following formula: […]
Concentration response curves were analyzed using GraphPad Prism (GraphPad Software, San Diego, Calif.) by non-linear regression analysis (sigmoidal dose-response). IC50 values are calculated using GraphPad.
Imax values were calculated using the following formula: […]

Assay [3] concerns the target T3, ghrelin receptor (HEK-GHSR1 stable cells) (Homo sapiens, UniProt Q92847).
T3 construct: expressed in transfected cells
As to the kind of experiment: Ghrelin receptor inverse agonist assay (HTRF IP-one), Method B4. It counts as cell-based. As to conditions: inverse agonist at the ghrelin receptor, Method B4. From the text:
B4. Ghrelin Receptor Inverse Agonist Assay […]
In addition, the following method can be utilized to assay for inverse agonist activity. (Thomsen, W.; et al. Curr. Opin. Biotechnol. 2005, 16, 655-665; Tozawa-Takahashi F; et al., 11th SBS Annual Conference. September 2005, Geneva; Trinquet, E.; Fink, M.; Bazin, H.; et al. Anal. Biochem. 2006, 358, 126-135; Bergsdorf, C.; Kropp-Goerkis, C.; Kaehler, I.; Ketscher, L.; Boerner, U.; Parczyk, K.; Bader, B. Assay Drug Dev. Technol. 2008, 6, 39-53.)
• 1. Remove culture medium from the plate by inversion. • 2. Add 70 μl of compound/well. • 3. Incubate 30 min at 37° C. • 4. Stop the reaction by adding 15 μl of lysis buffer/well. • 5. Add 15 μl of d2/well. • 6. Add 15 μl of Anti-IP1 cryptate/well. • 7. Incubate 1 h at room temp on an orbital shaker at 100 RPM. • 8. Read the fluorescence in a plate reader (Tecan GeniosPro or similar)
The above sequence was performed using the HTRF IP-one kit (CisBio cat#62P1APEC). For the simultaneous assay of multiple test compounds, 96-well plates can be utilized in this assay (white plate with flat-bottom well, Falcon #353296). These were seeded overnight with 100 000 of HEK-GHSR1 stable cells/well. • Wells A1 and A2 of each plate are used as negative control (wells without d2). Compounds are typically tested in replicate at the following concentrations:
Compounds are stored at 10 mM in 100% DMSO.
1st dilution 1/10 in 100% DMSO (1 mM final concentration).
2nd dilution 1/10 in H2O (0.1 mM final concentration).
Other dilutions are performed in a 96-well plate in stimulation buffer.
The results for representative compounds of the invention are provided in the Examples.

T3 sequence (Q92847 whole entry): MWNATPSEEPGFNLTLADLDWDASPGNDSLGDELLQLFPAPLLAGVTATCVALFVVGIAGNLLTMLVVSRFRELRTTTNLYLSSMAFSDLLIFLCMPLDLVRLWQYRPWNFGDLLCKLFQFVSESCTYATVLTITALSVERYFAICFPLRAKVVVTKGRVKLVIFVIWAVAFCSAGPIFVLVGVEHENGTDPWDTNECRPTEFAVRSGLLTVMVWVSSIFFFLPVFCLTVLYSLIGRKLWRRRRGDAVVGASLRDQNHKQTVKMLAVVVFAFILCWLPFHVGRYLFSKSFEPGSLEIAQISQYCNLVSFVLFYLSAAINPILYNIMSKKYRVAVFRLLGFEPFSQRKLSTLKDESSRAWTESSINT
T1 sequence (Q92847 whole entry): as above
T2 sequence (Q92847 whole entry): as above

As to `CC[C@@H]1CCc2ccc(F)cc2OCCN[C@@H](C2(C)CC2)C(=O)N(C)[C@@H](C(C)O)C(=O)N[C@H](Cc2cccc(F)c2)C(=O)N1` (some centres unmarked) [Compound 1747], the IC50 in assay [1] was in the range of 10 to 100 nM; in assay [3] it was 50 to 100 nM. In addition, in assay [2], the “Antagonist Activity” value is reported as “B (B = 1-10 nM)”.
Regarding `CC[C@@H]1CCc2ccc(F)cc2OCCN[C@@H](C(C)C)C(=O)N(C)[C@@H](C(C)O)C(=O)N[C@H](Cc2ccc(Cl)cc2)C(=O)N1` (some centres unmarked) [Compound 1753], the IC50 was 10 to 100 nM in assay [1] and 50 to 100 nM in assay [3]. Moreover, the “Antagonist Activity” value in assay [2] was “B (B = 1-10 nM)”.
Turning to `CC1CCc2ccccc2OCCNC(C(C)(C)C)C(=O)N(C)C(C(C)O)C(=O)NC(Cc2cccc(F)c2)C(=O)N1` (centres unmarked) [Compound 1796], the values for the IC50 in assay [1] and in assay [3] were 1 to 10 nM and 10 to 50 nM, respectively.
`CC(O)C1C(=O)NC(Cc2ccccc2)C(=O)NCC2CCc3cccc(c3C2)OCCNC(C2CCCCC2)C(=O)N1C` (centres unmarked) [Compound 1797]: the 50% inhibitory concentration (IC50) in assay [1] lay within 10 to 100 nM; in assay [3], 100 to 500 nM.
As for `CCC(C)C1NCCOc2cccc3c2CC(CC3)CNC(=O)C(Cc2ccccc2)NC(=O)C(C(C)O)N(C)C1=O` (centres unmarked) [Compound 1798], the results for the IC50 in assay [1] and in assay [3] were 1 to 10 nM and 100 to 500 nM, respectively.
Turning to `CCC(C)C1NCCOc2cccc(F)c2C=CCNC(=O)C(Cc2ccc(Cl)cc2)NC(=O)C(C(C)O)N(C)C1=O` (centres unmarked) [Compound 1799], the IC50 lay in the range of 1 to 10 nM in assay [1] and 50 to 100 nM in assay [3]. Besides, the “Antagonist Activity” value in assay [2] is reported as “C (C = 10-100 nM)”.
For the compound `CC1CCc2ccccc2OCCNC(C(C)C)C(=O)N(C)C(C(C)O)C(=O)NC(Cc2c[nH]c3ccc(F)cc23)C(=O)N1` (centres unmarked) [Compound 1801], the concentration for half-maximal inhibition (IC50) lay within 1 to 10 nM in assay [1] and 10 to 50 nM in assay [3]. For the same compound, in assay [2], the “Antagonist Activity” value is “B (B = 1-10 nM)”.
`Cc1ccc2[nH]cc(CC3NC(=O)C(C(C)O)N(C)C(=O)C(C(C)C)NCCOc4ccccc4CCC(C)NC3=O)c2c1` (centres unmarked) [Compound 1802]: the IC50 in assay [1] was in the range of 1 to 10 nM; in assay [3] it was 10 to 50 nM.
For `CCC1CCc2ccc(F)cc2OCCNC(C(C)C)C(=O)N(C)C(C(C)O)C(=O)NC(C(C)c2ccccc2)C(=O)N1` (centres unmarked) [Compound 1805], the values for the IC50 in assay [1] and in assay [3] were 10 to 100 nM and 100 to 500 nM, respectively. Moreover, the “Antagonist Activity” value in assay [2] was “C (C = 10-100 nM)”.
Regarding `CCC1CCc2ccc(Cl)cc2OCCNC(C(C)C)C(=O)N(C)C(C(C)O)C(=O)NC(Cc2c[nH]c3ccccc23)C(=O)N1` (centres unmarked) [Compound 1806], the IC50 in assay [1] was 10 to 100 nM; in assay [3] it was 100 to 500 nM. Besides, the “Antagonist Activity” value in assay [2] is “C (C = 10-100 nM)”.
Take `CCC1CCc2ccccc2OCCNC(C(C)C)C(=O)N(C)C(C(C)O)C(=O)NC(Cc2c[nH]c3ccc(F)cc23)C(=O)N1` (centres unmarked) [Compound 1808]: the figures for the concentration for half-maximal inhibition (IC50) in assay [1] and in assay [3] were 1 to 10 nM and 10 to 50 nM, respectively. The “Antagonist Activity” value in assay [2] is recorded as “B (B = 1-10 nM)”.
Take `CC(C)C1NCCOc2cccc(F)c2C=CCNC(=O)C(C(C)c2ccccc2)NC(=O)C(C(C)O)N(C)C1=O` (centres unmarked) [Compound 1811]: the half-maximal inhibitory concentration (IC50) in assay [1] lay within 10 to 100 nM; in assay [3], 100 to 500 nM.
As for `CCC1CCc2ccc(F)cc2OCCNC(C(C)C)C(=O)N(C)C(C(C)O)C(=O)NC(Cc2cn(S(=O)(=O)c3ccc(C)cc3)c3ccccc23)C(=O)N1` (centres unmarked) [Compound 1812], the figures for the IC50 in assay [1] and in assay [3] were 10 to 100 nM and 50 to 100 nM, respectively. Besides, the “Antagonist Activity” value in assay [2] is listed as “C (C = 10-100 nM)”.
Consider `CCC1CCc2ccc(Cl)cc2OCCNC(C(C)C)C(=O)N(C)C(C(C)O)C(=O)NC(Cc2ccccc2)C(=O)N1` (centres unmarked) [Compound 1813], for which the IC50 in assay [1] and in assay [3] was 100 to 500 nM throughout.
Regarding `CCC1CCc2ccc(Cl)cc2OCCNC(C(C)C)C(=O)N(C)C(C(C)O)C(=O)NC(Cc2cccc(F)c2)C(=O)N1` (centres unmarked) [Compound 1814], the 50% inhibitory concentration (IC50) in assay [1] and in assay [3] was 100 to 500 nM in each case.
`CCC1CCc2ccc(F)cc2OCCNC(C(C)C)C(=O)N(C)C(C(C)O)C(=O)NC(Cc2ccco2)C(=O)N1` (centres unmarked) [Compound 1824]: the figures for the IC50 in assay [1] and in assay [3] were 10 to 100 nM and 100 to 500 nM, respectively.
Turning to `CCC(C)C1NCCOc2ccccc2C=CCNC(=O)C(Cc2c[nH]c3ccc(F)cc23)NC(=O)C(C(C)O)N(C)C1=O` (centres unmarked) [Compound 1827], the IC50 in assay [1] was in the range of 10 to 100 nM; in assay [3], 100 to 500 nM.
Take `CCC1CCc2ccc(F)cc2OCCNC(CC)C(=O)N(C)C(C(C)O)C(=O)NC(Cc2c[nH]c3ccccc23)C(=O)N1` (centres unmarked) [Compound 1853]: the IC50 fell in the range of 10 to 100 nM in assay [1] and 100 to 500 nM in assay [3].
Consider `CCC1CCc2ccc(F)cc2OCCNC(CC)C(=O)N(C)C(C(C)O)C(=O)NC(Cc2ccccc2)C(=O)N1` (centres unmarked) [Compound 1854], for which the half-maximal inhibitory concentration (IC50) in assay [1] and in assay [3] was 100 to 500 nM throughout.
As for `CCC1CCc2ccc(F)cc2OCCNC(CC)C(=O)N(C)C(C(C)O)C(=O)NC(Cc2ccc(F)cc2)C(=O)N1` (centres unmarked) [Compound 1855], the IC50 in assay [1] fell in the range of 10 to 100 nM; in assay [3], 100 to 500 nM.
`CC(O)[C@H]1C(=O)N[C@H](Cc2ccc(Cl)cc2)C(=O)N[C@H](C)CCc2ccc(F)cc2OCCN[C@@H](C2(C)CC2)C(=O)N1C` (some centres unmarked) [Compound 1872]: the IC50 is 1 to 10 nM in assay [1] and 10 to 50 nM in assay [3].
Turning to `CC[C@@H]1CCc2ccc(F)cc2OCCN[C@@H](C2(C)CC2)C(=O)N(C)[C@@H](C(C)O)C(=O)N[C@H](Cc2ccc(Cl)cc2)C(=O)N1` (some centres unmarked) [Compound 1875], the IC50 fell in the range of 1 to 10 nM in assay [1] and 50 to 100 nM in assay [3].
For `CC(O)[C@H]1C(=O)N[C@H](Cc2ccc(F)cc2)C(=O)NCC#Cc2ccccc2OCCN[C@@H](C2(C)CC2)C(=O)N1C` (some centres unmarked) [Compound 1879], the IC50 in assay [1] was in the range of 10 to 100 nM; in assay [3] it was 10 to 50 nM.
For the compound `CC(O)[C@H]1C(=O)N[C@H](Cc2ccc(F)cc2)C(=O)NCC#Cc2c(F)cccc2OCCN[C@@H](C2(C)CC2)C(=O)N1C` (some centres unmarked) [Compound 1884], the IC50 in assay [1] is 1 to 10 nM; in assay [3], 10 to 50 nM.

Usually IC50 stands for the concentration that inhibits the measured activity by half. A higher IC50 goes with weaker potency in that assay.
